What was measured:
[1] = Inhibitory concentration against cycloheximide induced cell death in human white blood cells in the absence of plasma proteins; type: functional, cell-based
[2] = Inhibitory concentration against etoposide induced apoptosis in rat cortical neurons; type: functional
[3] = Inhibitory concentration against etoposide induced apoptosis in mice cerebellar granule neurons; type: functional; settings: Mus musculus
Caspase-4 [4] = target: T1, Caspase-4 (Homo sapiens, UniProt P49662); assay: Inhibitory concentration against casp-4 in neuronal precursor (NT2) cells
T1 sequence (P49662 whole entry): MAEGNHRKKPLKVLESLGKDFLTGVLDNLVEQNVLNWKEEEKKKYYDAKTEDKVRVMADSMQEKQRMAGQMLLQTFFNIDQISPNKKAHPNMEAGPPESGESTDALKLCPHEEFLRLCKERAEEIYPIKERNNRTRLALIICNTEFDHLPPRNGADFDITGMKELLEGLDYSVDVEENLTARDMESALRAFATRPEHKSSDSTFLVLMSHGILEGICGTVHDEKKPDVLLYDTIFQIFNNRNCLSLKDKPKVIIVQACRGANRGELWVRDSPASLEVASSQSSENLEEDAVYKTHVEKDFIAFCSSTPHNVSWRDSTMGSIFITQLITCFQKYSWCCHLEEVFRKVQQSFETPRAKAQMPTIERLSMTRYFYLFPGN

[5] = Inhibitory concentration against cycloheximide induced cell death in human white blood cells in the presence of plasma proteins; type: functional, cell-based
Caspase-8 = Caspase-8 (Homo sapiens, UniProt Q14790); assay: Inhibitory concentration against recombinant human caspase-8 […]
Chain of Caspase-8 (Q14790 217-374 limits assumed): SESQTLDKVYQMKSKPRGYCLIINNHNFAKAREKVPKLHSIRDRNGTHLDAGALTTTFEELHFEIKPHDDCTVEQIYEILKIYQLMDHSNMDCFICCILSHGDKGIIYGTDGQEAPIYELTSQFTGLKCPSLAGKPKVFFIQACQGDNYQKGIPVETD
Chain of Caspase-8 (Q14790 385-479 limits assumed): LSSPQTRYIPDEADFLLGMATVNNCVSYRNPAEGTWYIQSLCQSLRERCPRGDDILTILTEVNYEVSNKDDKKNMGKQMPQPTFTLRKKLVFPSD

Caspase-10 [6] = target: T2, Caspase-10 (Homo sapiens, UniProt Q92851); assay: Inhibitory concentration against casp-10 in neuronal precursor (NT2) cells
T2 sequence (Q92851 whole entry): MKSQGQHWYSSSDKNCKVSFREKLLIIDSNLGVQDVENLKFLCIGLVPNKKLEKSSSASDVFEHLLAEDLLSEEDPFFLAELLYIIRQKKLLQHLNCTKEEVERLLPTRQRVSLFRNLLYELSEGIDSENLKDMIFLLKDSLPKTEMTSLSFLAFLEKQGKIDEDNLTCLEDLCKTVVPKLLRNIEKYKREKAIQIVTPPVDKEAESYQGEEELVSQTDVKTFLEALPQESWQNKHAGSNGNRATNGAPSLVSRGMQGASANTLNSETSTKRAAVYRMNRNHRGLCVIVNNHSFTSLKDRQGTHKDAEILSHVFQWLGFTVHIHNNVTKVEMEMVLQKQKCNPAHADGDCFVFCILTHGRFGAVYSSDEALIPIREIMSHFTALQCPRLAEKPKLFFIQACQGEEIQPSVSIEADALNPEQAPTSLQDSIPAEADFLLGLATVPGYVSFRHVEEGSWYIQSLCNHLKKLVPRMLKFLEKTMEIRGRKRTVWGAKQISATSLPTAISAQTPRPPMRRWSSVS

Caspase-2 [7] = target: T3, Caspase-2 (Homo sapiens, UniProt P42575); assay: Inhibitory concentration against casp-2 in neuronal precursor (NT2) cells
T3 sequence (P42575 whole entry): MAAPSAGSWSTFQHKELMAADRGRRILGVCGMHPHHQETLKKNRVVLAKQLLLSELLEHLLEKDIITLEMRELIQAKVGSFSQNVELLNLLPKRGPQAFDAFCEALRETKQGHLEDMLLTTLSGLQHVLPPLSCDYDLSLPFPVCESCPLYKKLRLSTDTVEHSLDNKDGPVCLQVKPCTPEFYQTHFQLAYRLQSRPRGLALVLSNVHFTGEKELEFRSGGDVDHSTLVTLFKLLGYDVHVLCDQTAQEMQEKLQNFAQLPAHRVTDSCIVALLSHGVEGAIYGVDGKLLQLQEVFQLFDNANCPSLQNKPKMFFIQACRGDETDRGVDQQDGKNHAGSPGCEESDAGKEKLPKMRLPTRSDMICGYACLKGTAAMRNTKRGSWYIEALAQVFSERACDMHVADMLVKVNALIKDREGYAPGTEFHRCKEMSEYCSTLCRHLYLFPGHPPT

Caspase-3 = target: T4, Caspase-3 (Homo sapiens, UniProt P42574); assay: Inhibitory concentration against recombinant human caspase-3 in neuronal precursor (NT2) cells
T4 sequence (P42574 whole entry): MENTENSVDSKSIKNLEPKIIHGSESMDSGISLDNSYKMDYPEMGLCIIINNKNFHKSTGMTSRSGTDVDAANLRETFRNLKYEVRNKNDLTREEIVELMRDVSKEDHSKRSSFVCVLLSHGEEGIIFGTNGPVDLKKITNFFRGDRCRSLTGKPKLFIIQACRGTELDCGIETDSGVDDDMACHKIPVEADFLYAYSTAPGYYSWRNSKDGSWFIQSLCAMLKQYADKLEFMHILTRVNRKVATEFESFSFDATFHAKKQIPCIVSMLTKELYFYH

Caspase-5 [8] = target: T5, Caspase-5 (Homo sapiens, UniProt P51878); assay: Inhibitory concentration against casp-5 in neuronal precursor (NT2) cells
T5 sequence (P51878 whole entry): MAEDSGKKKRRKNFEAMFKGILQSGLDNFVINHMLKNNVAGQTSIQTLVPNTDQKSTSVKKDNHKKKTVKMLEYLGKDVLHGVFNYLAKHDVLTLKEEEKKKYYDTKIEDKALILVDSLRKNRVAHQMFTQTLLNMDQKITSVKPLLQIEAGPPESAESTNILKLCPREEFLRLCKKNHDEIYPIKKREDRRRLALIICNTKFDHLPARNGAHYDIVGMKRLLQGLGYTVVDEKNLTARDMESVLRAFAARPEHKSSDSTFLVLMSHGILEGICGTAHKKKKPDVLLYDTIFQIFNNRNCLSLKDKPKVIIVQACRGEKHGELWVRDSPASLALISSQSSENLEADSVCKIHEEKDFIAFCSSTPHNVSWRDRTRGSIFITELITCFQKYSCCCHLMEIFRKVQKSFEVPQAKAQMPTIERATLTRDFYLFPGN

Caspase-1 = target: T6, Caspase-1 (Homo sapiens, UniProt P29466); assay: Inhibitory concentration against recombinant human caspase-1 in neuronal precursor (NT2) cells
T6 sequence (P29466 whole entry): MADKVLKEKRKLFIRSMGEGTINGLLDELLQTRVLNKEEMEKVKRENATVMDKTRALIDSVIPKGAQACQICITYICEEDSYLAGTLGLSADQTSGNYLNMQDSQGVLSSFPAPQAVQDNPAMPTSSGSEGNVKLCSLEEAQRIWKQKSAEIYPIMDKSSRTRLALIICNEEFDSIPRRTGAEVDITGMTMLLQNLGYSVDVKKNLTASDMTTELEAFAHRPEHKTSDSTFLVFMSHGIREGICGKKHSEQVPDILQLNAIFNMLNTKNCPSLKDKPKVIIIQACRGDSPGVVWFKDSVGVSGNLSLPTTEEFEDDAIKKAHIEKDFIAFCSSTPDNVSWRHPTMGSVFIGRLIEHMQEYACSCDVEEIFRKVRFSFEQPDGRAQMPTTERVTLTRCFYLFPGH

NT2 = assay: Inhibitory concentration against camptothecin induced apoptosis in neuronal precursor (NT2) whole cells; type: functional, cell-based; settings: Homo sapiens
Caspase-7 = target: T7, Caspase-7 (Homo sapiens, UniProt P55210); assay: Inhibitory concentration against recombinant human caspase-7 […]
T7 sequence (P55210 whole entry): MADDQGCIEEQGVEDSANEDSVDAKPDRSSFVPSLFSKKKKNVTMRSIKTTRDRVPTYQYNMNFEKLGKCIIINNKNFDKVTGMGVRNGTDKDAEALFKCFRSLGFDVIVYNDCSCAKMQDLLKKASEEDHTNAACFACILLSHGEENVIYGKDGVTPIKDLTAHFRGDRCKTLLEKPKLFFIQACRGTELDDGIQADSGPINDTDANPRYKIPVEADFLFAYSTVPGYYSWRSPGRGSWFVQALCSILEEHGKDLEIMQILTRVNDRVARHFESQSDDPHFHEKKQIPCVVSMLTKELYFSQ

Caspase-6 [9] = target: T8, Caspase-6 (Homo sapiens, UniProt P55212); assay: Inhibitory concentration against casp-6 in neuronal precursor (NT2) cells
T8 sequence (P55212 whole entry): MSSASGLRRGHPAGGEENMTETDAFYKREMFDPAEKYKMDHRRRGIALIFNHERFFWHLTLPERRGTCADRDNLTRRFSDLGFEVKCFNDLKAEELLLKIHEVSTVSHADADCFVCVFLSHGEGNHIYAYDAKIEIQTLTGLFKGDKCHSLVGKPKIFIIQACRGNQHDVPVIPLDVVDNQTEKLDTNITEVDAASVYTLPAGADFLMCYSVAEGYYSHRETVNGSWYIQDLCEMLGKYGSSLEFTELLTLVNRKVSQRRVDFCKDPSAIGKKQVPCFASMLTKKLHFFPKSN

Caspase-6 [10] = target: T8, Caspase-6; assay: Inhibitory concentration against caspase-6 in neuronal precursor (NT2) cells
Caspase-5 [11] = target: T5, Caspase-5; assay: Inhibitory concentration against human caspase-5 in neuronal precursor (NT2) cells
Caspase-2 [12] = target: T3, Caspase-2; assay: Inhibitory concentration against caspase-2 in neuronal precursor (NT2) cells
Caspase-4 [13] = target: T1, Caspase-4; assay: Inhibitory concentration against human caspase-4 in neuronal precursor (NT2) cells
Caspase-10 [14] = target: T2, Caspase-10; assay: Inhibitory concentration against caspase-10 in neuronal precursor (NT2) cells

Structure (SMILES)	IC50 (Caspase-8)	IC50 (Caspase-1)	IC50 (NT2)	IC50 (Caspase-7)	IC50 (Caspase-3)	further results
CCCCCN(C)CC(=O)C(CC(=O)O)NC(=O)C(CC)n1cc(C(C)(C)C)nc(NCc2nonc2C)c1=O (stereo not drawn)	4030 nM	110 nM	27 nM	90 nM		IC50 [1]: 40 nM; IC50 [2]: 60 nM; IC50 [3]: 60 nM; IC50 (Caspase-4 [4]): 500 nM; IC50 [5]: 700 nM; IC50 (Caspase-10 [6]): 29500 nM; IC50 (Caspase-2 [7]): > 10000 nM; Ki (Caspase-3): 1.4 nM; IC50 (Caspase-5 [8]): 810 nM; IC50 (Caspase-6 [9]): 3440 nM
CCCCCCN(C)CC(=O)C(CC(=O)O)NC(=O)C(CC)n1cc(C(C)(C)C)nc(NCc2nonc2C)c1=O (stereo not drawn)	2100 nM	50 nM	21 nM	13 nM		IC50 [1]: 50 nM; IC50 [2]: 90 nM; IC50 [3]: 50 nM; IC50 [5]: 1200 nM; IC50 (Caspase-6 [10]): 1700 nM; IC50 (Caspase-5 [11]): 200 nM; IC50 (Caspase-2 [12]): > 10000 nM; Ki (Caspase-3): 5 nM; IC50 (Caspase-4 [13]): 300 nM; IC50 (Caspase-10 [14]): 17700 nM
CCCCCCCCN(C)CNCC(=O)[C@H](CC(=O)O)NC(=O)C(CC)n1ccnc(NCc2nonc2C)c1=O (stereo partly drawn)	> 10000 nM	25 nM	150 nM	100 nM	9 nM	
CCC(C(=O)N[C@@H](CC(=O)O)C(=O)CSCc1ccccc1)n1ccnc(Nc2ccc3sc(C)nc3c2)c1=O (stereo partly drawn)	2730 nM	220 nM	37900 nM	2420 nM	88 nM	
CCC(C(=O)N[C@@H](CC(=O)O)C(=O)CNCN(C)CC)n1ccnc(NCc2nonc2C)c1=O (stereo partly drawn)	> 10000 nM	56 nM	1530 nM	540 nM	26 nM	
CCOCN(C)CNCC(=O)[C@H](CC(=O)O)NC(=O)C(CC)n1ccnc(NCc2nonc2C)c1=O (stereo partly drawn)	> 10000 nM	1750 nM	3990 nM	1010 nM	100 nM	
CCC(C(=O)N[C@@H](CC(=O)O)C(=O)CNCN1CCOCC1)n1cc(C(C)(C)C)nc(NCc2nonc2C)c1=O (stereo partly drawn)	> 10000 nM	730 nM	8620 nM	540 nM	110 nM	
CCCCCCN(C)CNCC(=O)[C@H](CC(=O)O)NC(=O)C(CC)n1cc(C(C)(C)C)nc(NCc2nonc2C)c1=O (stereo partly drawn)	6480 nM	67 nM	21 nM	42 nM	6 nM	
CCC(C(=O)N[C@@H](CC(=O)O)C(=O)CSCc1ccccc1)n1ccnc(NCCCc2nc(C)no2)c1=O (stereo partly drawn)	> 10000 nM	1700 nM	7100 nM	2600 nM	53 nM	
CCC(C(=O)N[C@@H](CC(=O)O)C(=O)CSCc1ccccc1)n1ccnc(NCCCOC)c1=O (stereo partly drawn)	7650 nM	920 nM	> 10000 nM	9730 nM	71 nM	
COc1ccc(S(C)(=O)=O)cc1CC(=O)N[C@H](C(=O)N[C@@H](CC(=O)O)C(=O)CSCc1ccccc1)C(C)C	490 nM	1600 nM	1000 nM	120 nM	5 nM	
CCCCN(C)CNCC(=O)[C@H](CC(=O)O)NC(=O)C(CC)n1ccnc(NCc2nonc2C)c1=O (stereo partly drawn)	> 10000 nM	31 nM	300 nM	130 nM	15 nM	
CCCCCCN(C)CNCC(=O)[C@H](CC(=O)O)NC(=O)C(CC)n1ccnc(NCc2nonc2C)c1=O (stereo partly drawn)	> 10000 nM	28 nM	130 nM	140 nM	11 nM	
